Reference: patent US20210301038A1, “POLYSIALIC ACID AND DERIVATIVES THEREOF, PHARMACEUTICAL COMPOSITION AND METHOD OF PRODUCING POLYSIALIC ACID” (Medizinische Hochschule Hannover (MHH), priority 2018, published 2021)

Tests used:
[1] = test system: layer II/III - layer V synapses in mPFC slices; experiment: TBS-induced LTP (fEPSP) in sham- and endoNF-treated mPFC slices from C57BL/6 mice; type: cell-based, mouse; details: for LTP level 50-60 min after TBS: endoNF-treated slices, Ro 25-6981 0.3 μM, DP12 1 μg/ml, DP5 1 or 10 μg/ml, sarcosine 0.75 mM, SSR 504734 3 μM
Method: (§1) For endoNF treatment in C57BL/6J mice, slices were first allowed to recover for 20 min at room temperature (22-24° C.) in recording aCSF and were then placed in a 24-well plate to be incubated in 2 ml of aCSF without (sham) or with addition of endoNF (10 μg/ml) at 35° C. for 2 hours. The 24-well plate was installed in a water bath (ED, Julabo, Seelbach, Germany). For field excitatory postsynaptic potential (fEPSP) recordings in knockout and transgenic mice, mPFC slices were incubated in recording aCSF for >2 hours at room temperature before recordings. For patch-clamp recordings in knockout mice, slices were incubated first at 35° C. for 20 min and then at room temperature for >30 min before recordings started. The aCSF was continuously gassed with 95% O2/5% CO2 during all incubation steps and recordings.
(§2) Prefrontal slices (400 μm) were transferred to a submerged-type recording MC membrane chamber (volume 2 ml; Scientific Systems Design Inc., Mississauga, Ontario, Canada) perfused with oxygenated recording ACSF at a flow rate of 4 ml/min and maintained at room temperature (22-25° C.), unless stated otherwise in the “Results”-section given below. Field EPSPs were evoked and recorded using thin-walled glass electrodes (borosilicate glass, wall thickness 0.188, length 100, and outer diameter 1.5 mm, Hilgenberg, Malsfeld, Germany) filled with recording aCSF in 400 μm-thick mPFC slices. In order to stimulate electrically the input fibers of pyramidal cells, the stimulation electrode (0.3-0.5 MΩ) was inserted into layers II/III of the prelimbic cortex. The recording electrode (2-2.5 MΩ) was placed in the vicinity of dendrites and cell bodies of pyramidal neurons in layer V (Huang et al., 2004).
(§3) Before LTP induction, basal synaptic transmission was recorded in each slice and the relationship between stimulus intensity and fEPSP slope was measured. Basal fEPSPs were evoked at 0.05 Hz for at least 10 min. The supramaximal slope was determined by gradually increasing the stimulation intensity until a population spike in the fEPSP became first visible. The stimulation intensity was adjusted to elicit a basal fEPSP with a slope of approximately 50% of the supramaximal value.
(§4) LTP was induced by application of five trains of theta-burst stimulation (TBS) with an inter-theta-train interval of 20 s (Brennaman et al., 2011). Each train consisted of 8 bursts delivered at 5 Hz. Each burst consisted of four pulses delivered at 100 Hz. Duration of pulses was 0.2 ms. For calculation of the LTP level, the mean fEPSP slope was measured between 50-60 min after TBS delivery, and it was then normalized to mean baseline fEPSP slope during 0-10 min before TBS. Stimulus artifacts in representative fEPSP examples in figures were blanked to facilitate the perception of fEPSPs recorded in the mPFC. Recording and analysis of LTP in St8Sia4^−/− mice was performed in a blind manner.
The enzyme endosialidase NF (endoNF) (Stummeyer et al., 2005) and the short form of polysialic acid composed of 10 or twelve sialic acid residues (DP10 and DP12) were purified as described previously (Keys et al., 2014). Sialic acid (N-acetylneuraminic acid, DP1) and the pentamer of sialic acid sodium salt (DP5) were obtained from EY Laboratories (San Mateo, Calif., USA). DMB-labelled DP2 and DP12, and non-labelled avDP10-9OAc were synthesized in the laboratory of Rita Gerardy-Schahn (see sections Synthesis of DMB-DP2 and DMB-DP12 and Synthesis of avDP10-9OAc, respectively). […]

[2] = test system: mPFC slices from St8sia4−/− mice; experiment: TBS-induced LTP in mPFC slices from ST8SIA4-deficient mice and wild-type littermates; type: cell-based, mouse; details: Ro 25-6981 0.3 μM, DP12 1 μg/ml, sarcosine 0.75 mM; for LTP magnitude: St8sia4+/+ mice; for LTP level 50-60 min after TBS: St8sia4−/− mice
Method: as §1, §2, §3, §4

[3] = test system: AAV-GFP-Tau[R406W]-injected mice; experiment: Recency test in AAV-GFP-Tau[R406W]-injected mice; type: in vivo, mouse; details: intranasal delivery
Excerpt: AAVs were produced using the AAV helper free packaging systems AAV-DJ (Cell Biolabs, Inc.). In short, HEK293 cells were transfected with the pAAV-DJ and pHelper constructs along with the viral expression constructs (pAAV vectors) encoding either eGFP or eGFP-Tau[R406W] under the control of a synapsin promotor. After three days, viruses were harvested using freeze-thaw cycles. After lysis, non-viral DNA is digested with Benzonase, and lysate is filtered through a 0.22 μm filter, washed with PBS and concentrated using Amicon Ultra-15 Centrifugal Filter Units with a cut off of 50 kDa. Titers were determined to be >10^10 GC/ml using quantitative Real-Time PCR with primers for the WPRE element in the viral genome.
For stereotaxic delivery of AAVs, mice were anesthetized in a closed chamber using isoflurane (1 ml for 30 s). […]
Animals were randomly assigned to treatment groups using a randomized block design to counterbalance differences in age. […] Novelty detection was evaluated by calculating the discrimination ratio as follows: [novel object time−familiar object time]/[novel object time+familiar object time]×100%. In the recency test, the discrimination ratio was calculated as follows: [least recent object time−most recent object time]/[least object time+most recent object time]×100%. […]

## (α(2→8)Neu5Ac)12 [DP12]
[1]
  LTP level 50-60 min after TBS: full restoration of LTP levels
[2]
  LTP magnitude: no effect
  LTP level 50-60 min after TBS: full restoration of LTP levels
[3]
  rescue of impaired recent object recognition: fully rescued

## C[C@@H](CN1CCC(Cc2ccccc2)CC1)[C@@H](O)c1ccc(O)cc1.O=C(O)/C=C\C(=O)O [Ro 25-6981, (αR,βS)-α-(4-hydroxyphenyl)-β-methyl-4-(phenylmethyl)-1-piperidinepropanol maleate]
[1]
  LTP level 50-60 min after TBS: full restoration of LTP levels
[1]; sham-treated slices, 0.3 μM
  LTP magnitude: no effect
[2]
  LTP magnitude: no effect
  LTP level 50-60 min after TBS: full restoration of LTP levels
